Key:
[1] = system: CWR-22Rv1 human prostate cancer cells; experiment: Plasma membrane associated vs nuclear drug uptake in CWR-22Rv1 cells; format: cell-based
Protocol: Based upon these preliminary validation, cells were incubated in 10% fetal bovine serum (FBS) supplemented media containing 1μM ^14C-labeled tasquinimod for <10 minutes. When these cells are rapidly (< 20sec) separated from the media by vacuum filtration onto glass microfiber filter and the filters rapidly (< 20sec) washed, radiolabeled drug is retained by the washed cells and this radioactivity can be used to calculate the total cell associated concentration of drug (CAt). If instead after the washes, media are added above the filters and allowed to remain for a 15 minutes “wash out” period before being vacuumed off and subsequently rapidly (< 20sec) washed with drug free media, […]. […] Thus, total plasma membrane associated drug concentration (PMt) is determined by subtracting the ICt from the CAt value.
To determine the total nuclear concentration of drug (Nt), a modified protocol was needed to allow the rapid lyses of cells and rapid isolation of cell nuclei by differential centrifugation. This could not be accomplished using the usual method of detergent lyses because detergents extract bound drug due to its lipophilicity. Therefore, a detergent free protocol using nitrogen cavitation was developed to rapidly lyse cells and allow the rapid isolation of nuclei via differential centrifugation. Using this cavitation protocol, it was documented that within 1 hour, total nuclear drug concentration (Nt) equals that of the protein-free drug concentration in the media (i.e., 0.2 μM), and that after 4 hours equals PMt (i.e., see Figure 3B, right panel for representative results for the CWR-22Rv1 cells). From 8 hours onward, Nt is more than 10 fold higher than the free and 2 fold higher than the total drug concentration in the media, Figure 3B, right panel. For example at 24 hours post exposure to 1 μM tasquinimod in 10% FBS containing media, the Nt is 2.4 ± 0.3 μM, Figure 3B, right panel. At this 24 hours period, total radioactive drug in isolated nuclei from all 3 prostate cancer lines, as well as HUVEC cells (i.e., nuclear concentration in these 4 lines ranged from 2.2-3.1 μM) was extracted with acetonitrile and the extracts analyzed by HPLC. […] To resolve this, nuclear uptake was determined 24 hours post exposure to 1 μM tasquinimod in serum free media. These studies again documented that nuclear tasquinimod concentration in these 4 cell lines ranged from 2.5-3.5 μM documenting that binding to albumin is not required for cell uptake.
A rapid filtration method was developed and validated to measures the kinetics of tasquinimod cell uptake on a series of human cell lines. To do this, exponentially growing cells in a tissue culture flask are trypsinized, and the number of single cells counted and their average diameter determined electronically using Cellometer AutoT4 (Nexcelom, Lawrence, MA). Then multiple replicates (N=3-6) of 10^7 cells per time point were incubated from 5 minutes to 48 hours. at 37°C in 1ml of tissue culture media containing 10% fetal bovine serum (FBS) plus 1μM ^14C-labeled tasquinimod. The cells in each replicate incubation were then rapidly separated from the tasquinimod containing media by vacuum filtration onto a 24mm Whatman GF/C glass microfiber filter (GE Healthcare Sciences, Piscataway, NJ) using a Millipore 1225 sampling manifold (Millipore, Billerica MA). The filters are then rapidly washed and filtered (<20 seconds per wash) 3 times with 2mls of drug free FBS containing tissue culture media. Half of the replicate filters are then dried overnight and counted for determination of the total cell associated amount of drug (i.e., plasma membrane associated plus intracellular uptake). To the remaining half of the replicate filters, 2mls of drug free FBS containing tissue culture media is added above the filters and allowed to remain there for 15 minutes before being filtered off. […]

[2] = system: TRAMP-C2 mouse prostate cancer; experiment: TRAMP-C2 cancer growth and blood vessel density in syngeneic mice; format: in vivo; details: 5 mg/kg/day via the drinking water
Excerpt: Tasquinimod's oral potency is not restricted to human prostate cancer xenografts growing in immune-suppressed mice.
The source, history, and characteristics of the human prostate cancer cell lines (i.e., LNCaP, LAPC4, and CWR-22Rv1 and the human umbilical vascular endothelial cells (HUVEC) used, as well as cell culture conditions for their in vitro maintenance and the in vivo protocol for their xenografting into immune-deficient nude male mice are as described previously. The source, history, and characteristics of the TRAMP-C2 mouse prostate cancer line, as well as cell culture conditions for their in vitro maintenance and the in vivo protocol for their growth in intact adult male syngeneic C57Bl/6J are as described previously. All lines were mycoplasma negative using the MycoSensor PCR Assay kit (Agilent Technologies) and genetically authenticated within the last 6 months using short tandem repeat profiling conducted by the Johns Hopkins Genetic Resource Core Facility. The source, history, and characteristics of the CWR-RH human prostate cancer xenograft are as described previously. In vitro growth curves were determined as described. Animal studies were conducted according to animal protocol MO09M434 approved by Johns Hopkins Animal Care and Use Committee. […]

[3] = Protein binding fraction (PBF) in nude mouse plasma; format: in vitro ADME
Protocol: Mice were orally gavaged with ^14C-labeled tasquinimod at a dose of 5mg/kg and 1 hour later blood collected and plasma isolated and the PBF determined as described previously using Centrifree® YM-30 centrifuge filter unit with a molecular weight cutoff of 30K (i.e., Millipore, Billerica,MO).

What does the source list for `COc1cccc2c1c(O)c(C(=O)N(C)c1ccc(C(F)(F)F)cc1)c(=O)n2C` [Tasquinimod]?
time to steady state PMt ([1]; 1 μM in 10% FBS media): 5 to 10 min; total plasma membrane associated drug concentration (PMt), steady state ([1]; 1 μM in 10% FBS media, maintained to 48 hours): ~ 1 μM; total nuclear drug concentration (Nt) ([1]; 24 hours post exposure to 1 μM in 10% FBS containing media): 2.4 ± 0.3 µM; Nt relative to free drug concentration in the media ([1]; from 8 hours onward): more than 10 fold; Nt relative to total drug concentration in the media ([1]; from 8 hours onward): > 2 fold; total nuclear drug concentration (Nt) ([1]; within 1 hour, 1 μM in 10% FBS media): 0.2 µM; inhibition of TRAMP-C2 mouse prostate cancer growth ([2]; immune-competent syngeneic mice): > 80%; inhibition of blood vessel density within the TRAMP-C2 cancers ([2]; treated vs. control): 75 ± 9%; plasma tasquinimod that is albumin bound [3]: 98%; total plasma tasquinimod that is non-protein bound ([3]; following oral dosing): ~ 2%; fraction unbound at 1 h ([3]; oral, 5 mg/kg, nude mouse plasma): 0.02

Reference: PMC4226669, “Anti-cancer potency of tasquinimod is enhanced via albumin-binding facilitating increased uptake in the tumor microenvironment” (Oncotarget, 2014)
